Read-outs that look alike come from different tables or passages of the source.
Tests used:
[1] = system: HCV replicon in HUH-7 cells; assay: HCV replicon FRET assay; format: cell-based, Hepatitis C virus (strain 1b); conditions: Hepatitis C virus, Huh-7, Table 2, HCV replicon, replicon assay format not stated, read-out: EC50
Excerpt: An HCV replicon whole cell system was established as described by Lohmann, V. et al., Science, 285(5424):110-113 (1999). This system enabled us to evaluate the effects of our HCV Protease compounds on HCV RNA replication. Briefly, using the HCV strain 1b sequence described in the Lohmann paper (Accession number: AJ238799), an HCV cDNA was synthesized by Operon Technologies, Inc. (Alameda, Calif.), and the full-length replicon was then assembled in plasmid pGem9zf(+) (Promega, Madison, Wis.) using standard molecular biology techniques. The replicon consists of (i) the HCV 5′ UTR fused to the first 12 amino acids of the capsid protein, (ii) the neomycin phosphotransferase gene (neo), (iii) the IRES from encephalomyocarditis virus (EMCV), and (iv) HCV NS3 to NS5B genes and the HCV 3′ UTR. Plasmid DNAs were linearized with ScaI and RNA transcripts were synthesized in vitro using the T7 MegaScript transcription kit (Ambion, Austin, Tex.) according to manufacturer's directions. In vitro transcripts of the cDNA were transfected into the human hepatoma cell line, HUH-7. […] Resulting cell lines were characterized for positive and negative strand RNA production and protein production over time.
The HCV replicon FRET assay was developed to monitor the inhibitory effects of compounds described in the disclosure on HCV viral replication. HUH-7 cells, constitutively expressing the HCV replicon, were grown in Dulbecco's Modified Eagle Media (DMEM) (Gibco-BRL) containing 10% Fetal calf serum (FCS) (Sigma) and 1 mg/ml G418 (Gibco-BRL). Cells were seeded the night before (1.5×10^4 cells/well) in 96-well tissue-culture sterile plates. Compound and no compound controls were prepared in DMEM containing 4% FCS, 1:100 Penicillin/Streptomysin (Gibco-BRL), 1:100 L-glutamine and 5% DMSO in the dilution plate (0.5% DMSO final concentration in the assay). Compound/DMSO mixes were added to the cells and incubated for 4 days at 37° C. After 4 days, cells were first assessed for cytotoxicity using alamar Blue (Trek Diagnostic Systems) for a CC50 reading. The toxicity of compound (CC50) was determined by adding 1/10th volume of alamar Blue to the media incubating the cells. After 4 h, the fluorescence signal from each well was read, with an excitation wavelength at 530 nm and an emission wavelength of 580 nm, using the CYTOFLUOR® Series 4000 (Perspective Biosystems). Plates were then rinsed thoroughly with Phosphate-Buffered Saline (PBS) (3 times 150 μl). The cells were lysed with 25 μl of a lysis assay reagent containing an HCV protease substrate (5× cell Luciferase cell culture lysis reagent (PROMEGA® #E153A) diluted to 1× with distilled water, NaCl added to 150 mM final, the FRET peptide substrate (as described for the enzyme assay above) diluted to 10 μM final from a 2 mM stock in 100% DMSO. The plate was then placed into the CYTOFLUOR® 4000 instrument which had been set to 340 nm excitation/490 nm emission, automatic mode for 21 cycles and the plate read in a kinetic mode. EC50 determinations were carried out as described for the IC50 determinations.

[2] = target: T1, HCV NS3/4A protease complex, BMS strain (UniProt P27958, species not given/STRAIN_BMS); assay: FRET peptide assay to monitor HCV NS3/4A proteolytic activity (BMS strain); format: biochemical, Hepatitis C virus (genotype 1a); conditions: Table 2, NS3/4A BMS strain
T1 construct: said of H77 and J4L6S; fused on or other part: three-lysine solubilising tail at the end of NS4A (printed for the H77 and J4L6S constructs; probably the same for BMS)
T1 sequence (P27958 1027-1657, change not shown, one chain of several): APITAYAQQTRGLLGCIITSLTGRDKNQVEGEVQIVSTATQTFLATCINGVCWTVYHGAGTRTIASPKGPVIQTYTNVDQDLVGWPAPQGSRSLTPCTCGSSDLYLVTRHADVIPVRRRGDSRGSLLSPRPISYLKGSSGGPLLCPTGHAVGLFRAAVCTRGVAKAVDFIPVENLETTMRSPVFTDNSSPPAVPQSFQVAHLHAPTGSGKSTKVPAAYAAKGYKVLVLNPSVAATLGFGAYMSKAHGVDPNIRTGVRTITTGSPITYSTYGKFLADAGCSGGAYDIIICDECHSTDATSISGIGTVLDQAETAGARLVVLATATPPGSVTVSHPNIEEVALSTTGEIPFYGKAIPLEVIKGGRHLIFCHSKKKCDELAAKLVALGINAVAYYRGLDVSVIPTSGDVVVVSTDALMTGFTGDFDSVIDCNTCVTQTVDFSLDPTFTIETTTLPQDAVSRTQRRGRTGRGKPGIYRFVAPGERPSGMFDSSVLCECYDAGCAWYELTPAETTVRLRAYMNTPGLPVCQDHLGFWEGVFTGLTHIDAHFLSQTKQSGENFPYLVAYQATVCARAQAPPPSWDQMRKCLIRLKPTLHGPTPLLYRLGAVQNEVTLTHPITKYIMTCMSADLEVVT
Excerpt: HCV […] protease complexes, derived from the BMS strain, H77 strain or J4L6S strain, were generated, as described below. These purified recombinant proteins were generated for use in a homogeneous assay (see below) to provide an indication of how effective compounds of the present disclosure would be in inhibiting HCV NS3 proteolytic activity.
Serum from an HCV-infected patient was obtained from Dr. T. Wright, San Francisco Hospital. An engineered full-length cDNA (compliment deoxyribonucleic acid) template of the HCV genome (BMS strain) was constructed from DNA fragments obtained by reverse transcription-PCR (RT-PCR) of serum RNA (ribonucleic acid) and using primers selected on the basis of homology between other genotype 1a strains. From the determination of the entire genome sequence, a genotype 1a was assigned to the HCV isolate according to the classification of Simmonds et al. (See Simmonds, P. et al., J. Clin. Microbiol., 31(6), 1493-1503 (1993)). […] The infectious clones, H77 (1a genotype) and J4L6S (1b genotype) were obtained from R. Purcell (NIH) and the sequences are published in GENBANK® (AAB67036, see Yanagi, M. et al., Proc. Natl. Acad. Sci. U.S.A., 94(16):8738-8743 (1997); AF054247, see Yanagi, M. et al., Virology, 244(1):161-172 (1998)).
The H77 and J4L6S strains were used for production of recombinant NS3/4A protease complexes. DNA encoding the recombinant HCV NS3/4A protease complex (amino acids 1027 to 1711) for these strains were manipulated as described by P. Gallinari et al. (see Gallinari, P. et al, Biochemistry, 38(17):5620-5632 (1999)). Briefly, a three-lysine solubilizing tail was added at the 3′-end of the NS4A coding region. The cysteine in the P1 position of the NS4A-NS4B cleavage site (amino acid 1711) was changed to a glycine to avoid the proteolytic cleavage of the lysine tag. Furthermore, a cysteine to serine mutation was introduced by PCR at amino acid position 1454 to prevent the autolytic cleavage in the NS3 helicase domain. The variant DNA fragment was cloned in the pET21b bacterial expression vector (Novagen) and the NS3/4A complex was expressed in Escherichia. coli strain BL21 (DE3) (Invitrogen) following the protocol described by P. Gallinari et al. (see Gallinari, P. et al., J. Virol., 72(8):6758-6769 (1998)) with modifications. Briefly, the NS3/4A protease complex expression was induced with 0.5 millimolar (mM) Isopropyl β-D-1-thiogalactopyranoside (IPTG) for 22 hours (h) at 20° C. A typical fermentation (1 Liter (L)) yielded approximately 10 grams (g) of wet cell paste. The cells were resuspended in lysis buffer (10 mL/g) consisting of 25 mM N-(2-hydroxyethyl)piperazine-N′-(2-ethane sulfonic acid) (HEPES), pH 7.5, 20% glycerol, 500 mM sodium chloride (NaCl), 0.5% Triton X-100, 1 microgram/milliliter (“μg/mL”) lysozyme, 5 mM magnesium chloride (MgCl2), 1 μg/ml DnaseI, 5 mM β-mercaptoethanol (βME), protease inhibitor-ethylenediamine tetraacetic acid (EDTA) free (Roche), homogenized and incubated for 20 minutes (min) at 4° C. The homogenate was sonicated and clarified by ultra-centrifugation at 235000 g for 1 hour (h) at 4° C. Imidazole was added to the supernatant to a final concentration of 15 mM and the pH adjusted to 8.0. The crude protein extract was loaded on a Nickel-Nitrilotriacetic acid (Ni-NTA) column pre-equilibrated with buffer B (25 mM HEPES, pH 8.0, 20% glycerol, 500 mM NaCl, 0.5% Triton X-100, 15 mM imidazole, 5 mM βME). The sample was loaded at a flow rate of 1 mL/min. The column was washed with 15 column volumes of buffer C (same as buffer B except with 0.2% Triton X-100). The protein was eluted with 5 column volumes of buffer D (same as buffer C except with 200 mM Imidazole).
NS3/4A protease complex-containing fractions were pooled and loaded on a desalting column Superdex-S200 pre-equilibrated with buffer D (25 mM HEPES, pH 7.5, 20% glycerol, 300 mM NaCl, 0.2% Triton X-100, 10 mM βME). Sample was loaded at a flow rate of 1 mL/min. […]

SMILES | EC50 ([1]; numeric values) [nM] | IC50 ([2]; numeric values) [nM] | EC50 ([1]; activity range) [nM] | IC50 ([2]; activity range) [nM]
CCCCS[C@@]1(c2ccc(-c3ccccc3)cc2)C[C@@H](C(=O)N[C@]2(C(=O)NS(=O)(=O)C3CC3)C[C@H]2C(F)F)N(C(=O)[C@@H](NC(=O)OC(C)(C)C)C(C)(C)C)C1 [Example 6, tert-butyl (S)-1-((2S,4R)-4-(biphenyl-4-yl)-4-(butylthio)-2-((1R,2R)-1-(cyclopropylsulfonylcarbamoyl)-2-(difluoromethyl)cyclopropylcarbamoyl)pyrrolidin-1-yl)-3,3-dimethyl-1-oxobutan-2-ylcarbamate] | 18 to 36 | 2 | – | –
C=C[C@@H]1C[C@]1(NC(=O)[C@@H]1C[C@](c2ccc(-c3ccccc3)cc2)([S+]([O-])CCCC)CN1C(=O)[C@@H](NC(=O)OC(C)(C)C)C(C)(C)C)C(=O)NS(=O)(=O)C1CC1 (single isomer, unassigned) [Example 2] | – | – | 6 to 100 | 1 to 20
CCCCS[C@@]1(c2ccc(-c3ccccc3)cc2)C[C@@H](C(=O)N[C@]2(C(=O)NS(=O)(=O)C3CC3)C[C@H]2CC(F)F)N(C(=O)[C@@H](NC(=O)OC(C)(C)C)C(C)(C)C)C1 [Example 4, tert-butyl (S)-1-((2S,4R)-4-(biphenyl-4-yl)-4-(butylthio)-2-((1R,2S)-1-(cyclopropylsulfonylcarbamoyl)-2-(2,2-difluoroethyl)cyclopropylcarbamoyl)pyrrolidin-1-yl)-3,3-dimethyl-1-oxobutan-2-ylcarbamate] | – | – | 6 to 100 | 1 to 20
C=C[C@@H]1C[C@]1(NC(=O)[C@@H]1C[C@@](SC)(c2ccc(-c3ccccc3)cc2)CN1C(=O)[C@@H](NC(=O)OC(C)(C)C)C(C)(C)C)C(=O)NS(=O)(=O)C1CC1 [Example 8, tert-butyl (S)-1-((2S,4R)-4-(biphenyl-4-yl)-2-((1R,2S)-1-(cyclopropylsulfonylcarbamoyl)-2-vinylcyclopropylcarbamoyl)-4-(methylthio)pyrrolidin-1-yl)-3,3-dimethyl-1-oxobutan-2-ylcarbamate] | – | – | 6 to 100 | 1 to 20
